This note sets out measurements from US5721265A, “Fluorinated 2-nitroimidazole analogs for detecting hypoxic tumor cells” (priority 1995, dated 1998).

Values joined by “and” are separate entries in the source; they are usually repeats but may differ in a detail not shown here. Identical values can stand only once. “Also recorded” adds a separate entry of the source.

By Km is commonly meant the substrate concentration at which the rate is half of its maximum.

For one data set, the system named is SCCVII tumor. The data set can be described thus: SR 4554 retention and oxygen electrode measurement in SCCVII tumor. The format is in vivo. As for the experimental part: Tumor oxygenation measurements were performed 3 hours after SR 4554 administration using a polarographic needle oxygen electrode.
For a further data set, the system named is RIF-1 tumors. Nature of the data set: retention in RIF-1 tumor-bearing C3H/He mice by 19F magnetic resonance spectroscopy (and HPLC). The format is in vivo, mouse. As for the experimental part:
SR 4554 was administered as a single intraperitoneal injection of 180 mg/kg to RIF-1 tumor-bearing female C3 H/He mice and EMT-6 tumor-bearing female Balb/c mice. In some experiments, hydralazine ([…] i.v.) was administered 1 h prior to the administration of SR 4554. Magnetic resonance spectroscopy (MRS) was conducted on a 4.7 Tesla (SISCO) nuclear magnetic resonance (NMR) spectrometer using a double-tuned (^19 F/^2 H) circuit at 45 min and 6 hr post injection of SR 4554. Drug concentrations were obtained using a modification of the method of Thulborn et al. (1983) J. Magn. Reson. 55:357-371. Specifically, the ^19 F signal intensity was related to the natural abundance ^2 H signal from tissue water. Calibrations involved the use of a reference bulb containing 5-fluorotryptophan (5-FTP) and acetic acid-d (AcOH-d). Tumors were excised immediately after MRS examination and original drug levels determined by high performance liquid chromatography (HPLC), as described in Example 6.
It is assumed that the retention of high concentrations of ^19 F at 6 hr, despite the much lower (20 fold) concentration of original drug detected by HPLC at […], represent one or more nitro-reduced metabolites.
The retention of drug signal in RIF-1 tumors is plotted as a function of tumor weight in FIG. 7. Tumor ^19 F signal levels at 6 hrs and 45 min were calculated in μmol/g tumor. The retention of ^19 F at 6 hrs relative to 45 min in the same tumors was compared to corresponding tumor weights in grams. In this tumor model (a low hypoxic fraction tumor) the relative retention (6 hrs/45 min) correlated with tumor weight (corr. coeff.=0.83).

Data set [1] can be described thus: reductive metabolism of SR 4554 by mouse liver microsomes under hypoxia (HPLC). Format: in vitro ADME. As for the experimental part: The chromatographic system consisted of a WISP Model 712 autosampler (Waters Chromatography Ltd.), Model 660 gradient controller with a quaternary HPLC pump, a Model 991 photodiode array detector and a NEC Powermate SX/16 personal computer running Waters 991 photodiode array software. A reversed phase chromatographic separation was performed on a 10 μm μ Bondapak C18 (3.9×300 mm) analytical column (Millipore) at ambient temperature. Pellicular ODS (Whatman) packed in a 2×6.5 mm stainless steel column (Upchurch Scientific, Inc.) was used as a pre-column. The mobile phase was methanol/H2 O) (15:85). All solvents were filtered through a 0.45 μm Teflon PTFE/polypropylene filter membrane, de-gassed with helium and delivered isocratically at a flow rate of 2 ml/min. The column effluent was monitored by UV-photodiode array detection at 324 nm (UV range=200 to 500 nm). The peak area ratio of analyte to internal standard was used for conversion of the detector response to concentration estimates via the construction of a calibration curve.
SR 4554 was reduced by mouse liver microsomes as well as purified rat and human cytochrome P450 reductase under hypoxia (100% nitrogen).
The characteristics of reductive metabolism of SR 4554 by mouse liver microsomes (0.5 mg/ml protein) are depicted in FIG. 1. Samples were removed at various time points, extracted with silver nitrate and analyzed by high performance liquid chromatography (HPLC) as described above. […] The cytochrome P450 inhibitor--carbonmonoxide--inhibited the hypoxic metabolism of SR 4554 by 15%.
For orientation: Microsomes from liver hold many membrane-bound enzymes, among them those of drug oxidation.

In the case of `O=C(Cn1ccnc1[N+](=O)[O-])NCC(O)C(F)(F)F` (racemic) [SR 4554], the “SR 4554 Retention (mean ± SD)” value in the data set with SCCVII tumor was 0.57 +/- 0.14. Also, the “Retention (mean ± S.D.), + hydralazine” value in the data set on RIF-1 tumors (RIF-1 + hydralazine 1 h prior, n = 6) was 1.27 ± 0.50. In addition, the “Retention (mean ± S.D.)” value in the data set on RIF-1 tumors (RIF-1, 180 mg/kg i.p., n = 13, tumor weight 0.5 to 2.7 g) worked out at 0.53 ± 0.27. The “clearance from the brain and retention in tumors” value with RIF-1 tumors (RIF-1 mice) is recorded as “rapidly cleared from the brain but selectively retained in tumors”. Besides, in the data set on RIF-1 tumors (RIF-1 tumor, original drug, 7 hrs, HPLC), the “tumor drug level, 7 hrs (HPLC)” value is 0.009 μmol/g tissue and 0.008 μmol/g tissue and 0.007 μmol/g tissue. Also, the “concentration of original drug (HPLC, 7 hrs) lower than 19F (MRS, 6 hr)” value with RIF-1 tumors (RIF-1 tumors) came out at 20 fold. The “increase in retention on hydralazine pre-treatment” value with RIF-1 tumors (hydralazine 1 h prior) is recorded as “two-fold increase”. Also, the “inhibition of reduction by cytochrome P450 reductase inhibitor” value in data set [1] (TlCl3.4H2O, 0.2 mg/ml) is “completely inhibited”. Moreover, the “inhibition of reduction by air” value in data set [1] (in air) is reported as “completely inhibited”. The “Vmax of microsomal metabolism” value in data set [1] (mouse liver microsomes) was determined as 16.84 nmol/min/mg. Further, the “other nitro-containing species upon metabolism” value in data set [1] (mouse liver microsomes 0.5 mg/ml protein) is “No other nitro-containing species were observed”. Further, the reduced under hypoxia entry in data set [1] (mouse liver microsomes, 100% nitrogen) is “reduced; also recorded: metabolized under hypoxic conditions”. Also, the Km in data set [1] (mouse liver microsomes, read-out: Km of microsomal metabolism) worked out at 650 µM. Moreover, the “inhibition of reduction in the absence of cofactor (NADPH)” value in data set [1] (without NADPH) is recorded as “completely inhibited”.
